Measurements from patent US10905646B2, “Thermoplastic polyurethane film for delivery of active agents to skin surfaces” (Lubrizol Advanced Materials, Inc., priority 2014, dated 2021).
“And” between values parts separate entries of the source, which are not always exact repeats. Equal values may be shown once.

Columns and labels:
[1] = Concentration of active in wet polymer K after soaking, by HPLC; type: physicochemical; settings: replicate samples
Method: The sample is placed in approximately 5 mL of soaking solution (TABLE 17) and suspended for 30 minutes in the solution. The sample is periodically checked to ensure it remains totally immersed in the solution. At the end of soaking time, the sample is removed and reweighed (final sample diameter, about 2.1 cm). The concentration of caffeine in the wet polymer sample is measured by HPLC and is shown in TABLE 18 (HPLC: Shimadzu Scientific Prominence System; Column: […].: 250×4.6 mm; Carrier Phase: A: Water, B: Methanol (65:35 v/v); Oven Temperature: Room Temperature (approx. 22° C.); Flow Rate: 1 mL/min.; UV detection: 254 nm). […] At the conclusion of the 30 min. soaking period the sample is removed from the dimethylmethoxy chromanyl palmitate solution and re-weighed (TABLE 20). The final sample diameter is about 2.0 cm. […] At the conclusion of the 30 min. soaking period the sample is removed from the arbutin solution and re-weighed. The final sample diameter is about 2.2 cm. […] (TABLE 23) and suspended for 90 minutes in the solution. […] At the conclusion of the 90 min. soaking period the sample is removed from the acetyl hexapeptide-37 solution and re-weighed. The final sample diameter is about 2.2 cm. […] (TABLE 25) and suspended for 90 minutes in the acetyl hexapeptide-8 solution. […] At the end of the 90 minute soaking time, the square is removed and weighed again (final piece diameter: 2.2 cm). The same study is performed with a lower concentration of peptide, as follows. […] At the end of the soaking time, the square is removed from the low concentration acetyl hexapeptide-8 solution and weighed again (final piece diameter: 2.2 cm).

[2] = Percutaneous absorption study on pig skin, Franz diffusion cell; type: in vitro ADME, domestic pigs (Sus domesticus); settings: Franz cell receptor fluid (PBS), HPLC
Method: A percutaneous absorption study is performed on pig skin test samples obtained from the back of domestic pigs (Sus domesticus) weighing about 30 kg. The pig skin is dermatomed to a thickness of about 500 microns and then test discs having a diameter of 2.5 cm are sectioned from the dermatomed skin. […] The loaded films are applied to the sample discs (in contact with the stratum corneum) for 30 minutes. Different layers of the film treated skin (stratum corneum, epidermis and dermis) are separated, assayed and analyzed for the quantity of caffeine and permeation into the respective layers of the skin. The quantitative analysis for caffeine and is conducted by HPLC utilizing the instrumentation identified above.
Additionally, the same solutions utilized to load the polymer films are topically applied across the entire surface of the stratum corneum of comparative pig skin disc samples prepared as above. […]
The lower chamber contained the receptor fluid (PBS solution, Sigma-Aldrich Co. LLC). The integrity of the skin is evaluated by measuring the transepidermal water loss (TEWL). […] The collected receptor fluid is analyzed by HPLC as described above.
The quantities of caffeine that permeated into each of the three different layers of the skin samples (stratum corneum, epidermis and dermis) are collected separately as follows. […]

With `CCCCCCCCCCCCCCCC(=O)Oc1cc2c(cc1OC)OC(C)(C)CC2` [dimethylmethoxy chromanyl palmitate] the “% Dimethylmethoxy chromanyl palmitate (w/w), vs. wet polymer” value ([1]; film of Polymer K soaked 30 minutes in liposome soaking solution with 2 % dimethylmethoxy chromanyl palmitate) was 1.074 % (w/w) and 0.964 % (w/w) and 1.009 % (w/w) and 0.994 % (w/w) and 0.888 % (w/w).

In the case of `Cn1c(=O)c2c(ncn2C)n(C)c1=O` [caffeine], the “% caffeine (w/w), vs. wet polymer” value ([1]; film of polymer K soaked 30 min in soaking solution with 2 % caffeine, pH 4) is reported as 2.60 % (w/w) and 2.57 % (w/w) and 2.59 % (w/w) and 2.64 % (w/w) and 2.63 % (w/w) (2×) and the “Caffeine in the collected receptor fluid” value [2] is reported as “No caffeine was present”.

For Acetyl Hexapeptide-8, the “% Acetyl Hexapeptide-8 (w/w), vs. wet polymer” value ([1]; polymer K soaked 90 minutes in a 1/5000 dilution with water of the 0.05 % soaking solution) was 0.0017 % (w/w) and 0.0019 % (w/w) and the “% Acetyl Hexapeptide-8 (w/w), vs. wet polymer” value ([1]; polymer K soaked 90 minutes in soaking solution with 0.05 % acetyl hexapeptide-8) was 0.0425 % (w/w) and 0.0420 % (w/w) and 0.0418 % (w/w) and 0.0434 % (w/w).

In the case of `OC[C@H]1O[C@@H](Oc2ccc(O)cc2)[C@H](O)[C@@H](O)[C@@H]1O` [Arbutin, (2R,3S,4S,5R,6S)-2Hydroxymethyl-6(4hydroxyphenoxy)oxane-3,4,5triol], the “% Arbutin (w/w), vs. wet polymer” value ([1]; film of polymer K soaked 30 minutes in soaking solution with 4 % arbutin, pH 5.5) is reported as 1.42 % (w/w) and 1.61 % (w/w) (2×) and 1.45 % (w/w) and 1.78 % (w/w).
